Reference: US8741945B2, “Compounds” (Novacta Biosystems Limited, priority 2009, dated 2014)
Where “and” joins values, the source holds several entries; their conditions need not be identical. Identical values can stand only once.

Key:
[1] = tested on: Clostridium difficile strains; assay: Susceptibility testing (MIC) by two-fold serial agar dilution, Wilkins-Chalgren Anaerobe agar, anaerobic; type: cell-based
Description: Susceptibility testing for Clostridium difficile strains was performed by two-fold serial antibiotic dilutions in Wilkins-Chalgren Anaerobe agar under anaerobic conditions. Vancomycin was included as a comparator drug. C. difficile cultures were inoculated onto pre-reduced Braziers (C.C.E.Y.) agar plates and grown at 37° C. for 48 hours under anaerobic conditions. Two to three colonies of the 48 hours cultures were inoculated into 5 ml of pre-reduced Schaedlers Broth and grown at 37° C. for 24 hours under anaerobic conditions. This culture was diluted with pre-reduced 0.9% NaCl to achieve the turbidity of the 0.5 McFarland standard and applied to the drug containing plates at a final inoculum of 10^5 cfu/spot. Drug-free growth control plates were included. The plates were incubated in the anaerobic chamber at 37° C. for 48 hours and examined for growth.

[2] = Stability to enzymatic digestion in simulated intestinal fluid (SIF); type: in vitro ADME; conditions: 37° C., HPLC quantification (FIG. 1)
Description: Nisin and the compound of Example 1 were tested for their susceptibility towards enzymatic digestion in the intestine using a simulated intestinal fluid (SIF). The SIF was based on the standard USP solutions for simulated intestinal fluids and its activity was confirmed against Bovine Serum Albumin (Hilger et al, Clin. Exp. Immunol. 2001, 123, 387-94). The compounds were incubated in SIF at 37° C. and their concentrations quantified by analytical HPLC (UV detection at 210 nm using the conditions outline in Table 1).

C. difficile strain 4013 = assay: Hamster model of C. difficile associated cecitis (clindamycin induced); type: in vivo; conditions: three times daily at 10 mg/kg/day, 5-day dosing period, groups of 6
Description: The in vivo efficacy of the compounds of the invention in the treatment of C. difficile infections was evaluated in the standard animal model for CDAD, clindamycin induced cecitis in the hamster.
Groups of 6 animals were dosed with approximately 10^7 cells of C. difficile strain 4013 and 24 hours later with a subcutaneous dose of 10 mg/kg clindamycin phosphate. After a further 24 hours, the groups were then treated either with vehicle, vancomycin or with the compound of Example 1 three times daily at 10 mg/kg/day.

[3] = 7-day toxicity experiment in a rat model; type: in vivo
Description: The compound of Example 1 was tested in a 7-day toxicity experiment in a rat model. One study used 50 mg/kg/day of material administered intravenously for 7 days. The other study used 200 mg/kg/day of material administered orally for 7 days.

[4] = Tolerability in the Syrian hamster; type: in vivo; conditions: 50 mg/kg/day orally
[5] = 50 mg/kg/day intravenously for 7 days
[6] = 200 mg/kg/day orally for 7 days

Q: Which MIC ([1]; C. diff strain 027Can, listed as Eg 1) does the source give for `CCC(C)[C@@H]1NC(=O)[C@@H]2NC(=O)[C@H](CC(C)C)NC(=O)[C@H](NC(=O)C3CSC[C@H](N)C(=O)N[C@@H](CO)C(=O)NCC(=O)N[C@@H](Cc4c[nH]c5ccccc45)C(=O)N[C@@H](C(C)C)C(=O)N3)[C@H](C)SC[C@H](NC(=O)[C@H](CCC(=O)O)NC1=O)C(=O)NCC(=O)N[C@@H]1C(=O)N[C@@H](CC(C)C)C(=O)N[C@@H](C(C)C)C(=O)N[C@@H](CS[C@H]2C)C(=O)N[C@@H](C)C(=O)N[C@H](C(=O)NCCCCCCCN)CS[C@H]1C` (some centres unmarked) [Example 1, Deoxyactagardine B (7-amino-1-heptylamide monocarboxamide)] here?
A: 0.5, 0.5 μg/ml and 1, 1 μg/ml and 1 μg/ml and 0.5 μg/ml

Q: And the MIC ([1]; C. diff strain 027SM)?
A: 1, 1 μg/ml

Q: What about the MIC ([1]; C. diff strain 630, listed as Eg 1) of the same compound?
A: 0.5, 0.5 μg/ml and 0.5 μg/ml and 1 μg/ml and 1, 1 μg/ml

Q: What about the MIC ([1]; C. diff strain 19126, listed as Eg 1) of the same compound?
A: 1, 1 μg/ml and 0.5 μg/ml and 1 μg/ml

Q: What about the MIC ([1]; C. diff strain 37779, listed as Eg 1) of the same compound?
A: 1, 1 μg/ml and 1 μg/ml and 0.5 μg/ml

Q: And the MIC ([1]; C. diff strain B32)?
A: 1, 1 μg/ml

Q: What about the MIC ([1]; C. diff strain E16, listed as Eg 1) of the same compound?
A: 1 µg/mL and 2 µg/mL

Q: And the MIC ([1]; C. diff strain E101)?
A: 1, 1 μg/ml

Q: And the MIC ([1]; C. diff strain P24)?
A: 1, 1 μg/ml

Q: What about the MIC ([1]; C. diff strain P62, listed as Eg 1) of the same compound?
A: 2 µg/mL and 1 µg/mL

Q: And the “activity (MIC)” value ([1]; against many common strains of C. difficile)?
A: ≤ 1 µg/mL

Q: What about the “stability in SIF” value [2] of the same compound?
A: essentially stable

Q: What about the survival (C. difficile strain 4013) of the same compound?
A: survived for the duration of the entire 5-day dosing period

Q: What about the necropsy [3, 5] of the same compound?
A: no organ damage

Q: What about the toxicological effects [3, 5] of the same compound?
A: No significant toxicological effects

Q: And the necropsy [3, 6]?
A: no organ damage

Q: What about the toxicological effects [3, 6] of the same compound?
A: No significant toxicological effects

Q: What about the tolerability [4] of the same compound?
A: tolerated without obvious signs of toxicity

Q: For `CN[C@H](CC(C)C)C(=O)N[C@H]1C(=O)N[C@@H](CC(N)=O)C(=O)N[C@H]2C(=O)N[C@H]3C(=O)N[C@H](C(=O)N[C@H](C(=O)O)c4cc(O)cc(O)c4-c4cc3ccc4O)[C@H](O)c3ccc(c(Cl)c3)Oc3cc2cc(c3O[C@@H]2O[C@H](CO)[C@@H](O)[C@H](O)[C@H]2O[C@H]2C[C@](C)(N)[C@H](O)[C@H](C)O2)Oc2ccc(cc2Cl)[C@H]1O` [vancomycin, reference compound], which survival (C. difficile strain 4013) is on record?
A: survived for the duration of the entire 5-day dosing period

Q: What does the source list for “Deoxyactagardine B (3-amino-1-propylamide monocarboxamide) [Example 5]”?
A: MIC ([1]; C. diff strain 027SM): 2, 2 μg/ml; MIC ([1]; C. diff strain 630, listed as Eg 5): 1, 1 μg/ml and 2, 2 μg/ml; MIC ([1]; C. diff strain 19126, listed as Eg 5): 2, 2 μg/ml and 1, 1 μg/ml; MIC ([1]; C. diff strain 37779, listed as Eg 5): 1, 1 μg/ml and 2, 2 μg/ml; MIC ([1]; C. diff strain B32): 2, 2 μg/ml; MIC ([1]; C. diff strain E16, listed as Eg 5): 1 µg/mL and 2 µg/mL; MIC ([1]; C. diff strain E101): 2, 2 μg/ml; MIC ([1]; C. diff strain P24): 2, 2 μg/ml; MIC ([1]; C. diff strain P62): 2, 2 μg/ml

Q: What does the source list for “Deoxyactagardine B (12-amino-1-dodecylamide monocarboxamide) [Example 8]”?
A: MIC ([1]; C. diff strain 027Can): 1, 1 μg/ml; MIC ([1]; C. diff strain 027SM): 2, 2 μg/ml; MIC ([1]; C. diff strain 630, listed as Eg8): 0.5, 0.5 μg/ml and 1, 1 μg/ml; MIC ([1]; C. diff strain 19126, listed as Eg8): 1, 1 μg/ml and 2, 2 μg/ml; MIC ([1]; C. diff strain 37779, listed as Eg8): 1, 1 μg/ml and 1 μg/ml and 2 μg/ml; MIC ([1]; C. diff strain B32, listed as Eg8): 2 µg/mL and 1 µg/mL; MIC ([1]; C. diff strain E16): 2, 2 μg/ml; MIC ([1]; C. diff strain E101): 2, 2 μg/ml; MIC ([1]; C. diff strain P24, listed as Eg8): 2 µg/mL and 1 µg/mL; MIC ([1]; C. diff strain P62): 2, 2 μg/ml
